Converted amounts (≈) assume the structure as drawn. Like-named read-outs stand apart in the source and are kept apart here.
Columns and labels:
[1] = test system: peritoneal macrophages; test: Toxicity to peritoneal macrophages (Trypan Blue count); format: cell-based, BALB/C mouse
[2] = test system: axenic amastigotes of L. amazonensis (strain MHOM/BR/76/LTB-012)
[3] = test system: L. amazonensis Lma CL1; test: Activity against macrophages infected with Leishmania amastigotes; settings: read-out: IC50 L. amazonensis Lma CL1, 48 h
Procedure: (§3) A cloned line of Leishmania amazonensis(strain MHOM/BR/76/LTB-012) was used in all experiments. Axenically grown amastigote forms of L. amazonensis were maintained by weekly subpassages in MAA/20 medium (Sereno and Lemesre, Antimicrobial Agents and Chemotherapy 41, 972-976 (1997)) at 32±1° C. in 25 cm^2 tissue culture flasks. L. peruviana (strain MHOM/PE/LCA08) and L. braziliensis (strainMHOM/PE/PER006) were maintained in the promastigote stage in a biphasic medium (blood agar with 0.89% NaCl, pH 7.4) at 24° C., with sub-passage every 3 to 4 days. Promastigotes (5×10^6 parasites) were then transferred to 25 cm2 tissue culture flasks containing 5 ml of M199 medium supplemented with 10% foetal bovine serum (FBS), pH 7.4. After 4 days, exponential phase promastigotes were centrifuged for 10 minutes at 1500 g and 4° C. The supernatant was discarded and replaced by fresh M199 medium supplemented with 20% FBS, pH 5.5. Axenic amastigotes transformation was then induced by increasing the temperature to 34° C. and incubating for 96 h (Teixeira et al., Parasitology Research 88, 963-968 (2002)).
(§4) Extracted cells were immediately deposited on sterile 4×4 mm cover glasses and placed in each well of a 96-well plate. Plates were incubated for 24 h at 37° C., 5% CO2 to allow cell adhesion (Castillo et al, Journal of Ethnopharmacology 112, 410-414 (2007)). Pre-warmed complete M199 medium was used twice to remove non-adherent cells. A neutral red method (Fautz et al., Mutation Research 253, 173-179 (1991)) was employed to determine cell concentration. Approximately 7×10^4 viable cells were deposited in each well for adhesion.
(§5) Infection of macrophages by amastigotes was determined as follows. […] Twelve hours after infection, a solution of the compounds to be tested was added to the cultures at various concentrations and maintained at 37° C. in 5% CO2 for a further forty-eight hours more. The plates were fixed with methanol and stained with 10% Giemsa stain. The percentage of infected macrophages was determined microscopically at 100 times magnification. The number of intracellular amastigotes was determined in 300 cells. Following Delorenzi et al. Antimicrobial Agents and Chemotherapy, 45, 1349-1354 (2001)) the percentage of infection rate (% IR) of each culture was calculated as follows: % IR=100−(infection rate of the treated culture/infection rate of the untreated culture)×100.
(§6) All experiments were performed in triplicate. ANOVA was used to test for statistical significance of differences (Epi-Info, Statview student program). The total parasite burden was calculated as a mean number of amastigotes per cells multiplied by the number of infected macrophages.

[4] = test system: L. braziliensis PER006; test: as above; settings: read-out: IC50 L. braziliensis PER006
Procedure: as §3, §4, §5, §6

[5] = test system: L. peruviana LCA08; test: as above; settings: read-out: IC50 L. peruviana LCA08
Procedure: as §3, §4, §5, §6

[6] = test system: axenic amastigotes of L. amazonensis (strain MHOM/BR/76/LTB-012); test: microbe, parasite or virus in culture; settings: Leishmania amazonensis
[7] = test system: 3T3 cells; test: Cell growth inhibition bioassay (sulforhodamine B); format: cell-based, mouse; settings: Mus musculus, NIH3T3; 48 h, SRB; read-out: GI50 in indicated cell line: 3T3
Summary of the method: (§1)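 Cells were exposed to compound alongside matched solvent controls, then stained with sulforhodamine B. Percent growth inhibition was calculated from dye absorbance against the control.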

[8] = test system: DU145 cells; test: Cell growth inhibition bioassay (sulforhodamine B); format: cell-based, human; settings: Homo sapiens, DU-145; 48 h, SRB; read-out: GI50 in indicated cell line: DU145
Summary of the method: (§2)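 Cytotoxicity is read by sulforhodamine B colorimetry following the Skehan protocol; values are growth inhibition relative to solvent-only wells.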

[9] = test system: H460 cells; test: Cell growth inhibition bioassay (sulforhodamine B); format: cell-based, human; settings: Homo sapiens, NCI-H460; 48 h, SRB; read-out: GI50 in indicated cell line: H460
Summary of the method: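 Human cancer cells (MCF-7 breast, DU145 and PC3 prostate, H460 large cell lung) were treated with compounds. Growth relative to solvent control was quantified by SRB protein stain.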

[10] = test system: HT-29 cells; test: Cell growth inhibition bioassay (sulforhodamine B); format: cell-based, human; settings: Homo sapiens, HT-29; 48 h, SRB; read-out: GI50 in indicated cell line: HT-29
Summary of the method: as §1

[11] = test system: K562 cells; test: Cell growth inhibition bioassay (sulforhodamine B); format: cell-based, human; settings: Homo sapiens, K562; 48 h, SRB; read-out: GI50 in indicated cell line: K562
Summary of the method: as §1

[12] = test system: M-14 cells; test: Cell growth inhibition bioassay (sulforhodamine B); format: cell-based, human; settings: Homo sapiens, M14; 48 h, SRB; read-out: GI50 in indicated cell line: M-14
Summary of the method: as §1

[13] = test system: MCF-7 cells; test: Cell growth inhibition bioassay (sulforhodamine B); format: cell-based, human; settings: Homo sapiens, MCF7; 48 h, SRB; read-out: GI50 in indicated cell line: MCF-7
Summary of the method: as §2

[14] = test system: VERO cells; test: Cell growth inhibition bioassay (sulforhodamine B); format: cell-based, African Green Monkey; settings: Chlorocebus sabaeus, Vero; 48 h, SRB; read-out: GI50 in indicated cell line: VERO
Summary of the method: as §2

[15] = test system: Trypanosoma cruzi (Tulahuen C4); test: In vitro anti-T. cruzi activity (β-galactosidase CPRG colorimetric assay in VERO monolayer); format: cell-based; settings: for Selectivity Index Lab B: IC50, VERO/IC50, T. cruzi; for IC50: Trypanosoma cruzi, TULAHUEN, Vero
[16] = test system: M. tuberculosis H37Rv; test: Conventional aerobic (MABA) culture assay, luminescence MIC; format: cell-based, Mycobacterium tuberculosis; settings: for MIC: Mycobacterium tuberculosis, 168 h, aerobic, 7 days, H37Rv; for Selectivity Index H37Rv: VERO vs MABA MIC
[17] = Toxicity to peritoneal macrophages (Trypan Blue count); format: cell-based, BALB/C mouse; settings: BALB/C, mouse, Cytotoxicity Macrophages IC50
[18] = Cytotoxicity VERO cell (Table 6); settings: African green monkey, VERO cells
[19] = Cytotoxicity on VERO cells (MTT), anti-T. cruzi study; settings: African green monkey, VERO cells, Cytotoxicity VERO Lab B, Lab B
[20] = test system: L. amazonensis; settings: for Lesion diameter / Reduction of parasite burden After 4 weeks / Reduction of parasite burden After 7 weeks / Mean lesion size (mm) / Mean parasite quantification (per 10^6) in lesion per mg (±SD) / Mean lesion wt (mg) (±SD) / % Variation of lesion wt / % reduction of parasite burden in the lesion: compounds 5 mg/kg/day, intralesional; for Lesion diameter / Reduction of parasite burden After 4 weeks / Reduction of parasite burden After 7 weeks: Glucantime 33 mg/kg/day; for cutaneous toxicity: at the tested doses (5 mg/kg/day intralesional); for Mean lesion size (mm) / Mean parasite quantification (per 10^6) in lesion per mg (±SD) / Mean lesion wt (mg) (±SD) / % Variation of lesion wt / % reduction of parasite burden in the lesion: Glucantime 33 mg Sb(v)/kg/day; for Mean lesion wt (mg) (±SD): BALB/c mice n=10; for % Variation of lesion wt / % reduction of parasite burden in the lesion: vs control
[21] = Mus musculus, Peritoneal macrophage, 48 h, Table 7, read-out: IC50 Macrophage
[22] = 72 h, read-out: IC50 L. amazonensis
[23] = Leishmania amazonensis, Macrophage
[24] = Leishmania braziliensis, Macrophage, 48 h
[25] = Leishmania peruviana, Macrophage, 48 h
[26] = Lab A, read-out: T. cruzi IC50 Lab A
[27] = Lab B, read-out: T. cruzi IC50 Lab B

SMILES	IC50 [1, 21]	IC50 [6, 22]	IC50 [3, 23]	IC50 [4, 24]	IC50 [5, 25]	GI50 [7]	GI50 [8]	GI50 [9]	GI50 [10]	GI50 [11]	GI50 [12]	GI50 [13]	GI50 [14]	Selectivity Index Lab B ([15]; Lab B)	IC50 [15, 27]	MIC [16]	Selectivity Index H37Rv [16]	IC50 at 48 h [17]	Selectivity Index ([2]; Table 8b)	IC50 [18]	further results
C[C@@H]1[C@H](O)[C@@H](C)/C=C/C=C/C=C/C=C/C=C/C=C/C=C/[C@H](O[C@@H]2O[C@H](C)[C@@H](O)[C@H](N)[C@@H]2O)C[C@@H]2O[C@](O)(C[C@@H](O)C[C@@H](O)[C@H](O)CC[C@@H](O)C[C@@H](O)CC(=O)O[C@H]1C)C[C@H](O)[C@H]2C(=O)O [Amphotericin B, reference compound]																					IC50 [1]: 5.4 µM; IC50 ([1]; 48 h, Table 7, read-out: IC50 Macrophage): 5.3 µM; IC50 [2]: 0.14 µM; IC50 ([2]; read-out: IC50 L. amazonensis, axenic amastigotes, 72 h, Table 7): 0.1 µM; IC50 ([2]; read-out: L. amazonensis IC50, Table 8b): 0.1 µM; IC50 ([3]; infected macrophages): 0.4 µM; IC50 ([4]; infected macrophages, 48 h): 0.1 µM; IC50 ([5]; infected macrophages, 48 h): 0.1 µM
COc1cc(O)cc(O)c1C(=O)/C=C/c1ccco1 [Compound I-43, (2E)-1-(2,4-Dihydroxy-6-methoxyphenyl)-3-(2-furanyl)-2-propen-1-one]	384 µM	4.6 µM	17 µM	30.4 µM	34.2 µM																
COc1ccc(/C=C/C(=O)c2c(O)cc(O)cc2OC)c(OC)c1 [Compound I-36, (2E)-1-(2,4-Dihydroxy-6-methoxyphenyl)-3-(2,4-dimethoxyphenyl)-2-propen-1-one]	> 300 µM	6.4 µM	28.5 µM	237 µM	290 µM																
C(=N/Nc1ncnc2sc3c(c12)CCCC3)/c1ccc[nH]1 [II-19]						0.7 µg/mL (≈ 2.35 µM)	1.4 µg/mL (≈ 4.71 µM)	0.5 µg/mL (≈ 1.68 µM)	1.1 µg/mL (≈ 3.7 µM)	0.6 µg/mL (≈ 2.02 µM)	0.7 µg/mL (≈ 2.35 µM)	0.1 µg/mL (≈ 0.336 µM)	0.6 µg/mL (≈ 2.02 µM)	0.1	6.8 µg/mL (≈ 22.9 µM)	6.2 µg/mL (≈ 20.8 µM)	0.7	2.9 µM	1.0	4 µg/mL (≈ 13.5 µM)	IC50 [15, 26]: 0.6 µg/mL (≈ 2.02 µM); IC50 ([6]; read-out: L. amazonensis IC50): 3 µM; IC50 [19]: 1 µg/mL (≈ 3.36 µM)
Oc1ccc(/C=N\Nc2ncnc3sc4c(c23)CCCC4)cc1 [II-09]						2.1 µg/mL (≈ 6.47 µM)	6.8 µg/mL (≈ 21 µM)	4.8 µg/mL (≈ 14.8 µM)	6.3 µg/mL (≈ 19.4 µM)	5.1 µg/mL (≈ 15.7 µM)	5.6 µg/mL (≈ 17.3 µM)	5.5 µg/mL (≈ 17 µM)	6.8 µg/mL (≈ 21 µM)	1.1	3.7 µg/mL (≈ 11.4 µM)	23.4 µg/mL (≈ 72.1 µM)	0.6	57.8 µM	4.3	14.6 µg/mL (≈ 45 µM)	IC50 [15, 26]: 2.6 µg/mL (≈ 8.01 µM); IC50 ([6]; read-out: L. amazonensis IC50): 13.5 µM; IC50 [19]: 4 µg/mL (≈ 12.3 µM)
Clc1ccccc1/C=N\Nc1ncnc2sc3c(c12)CCCC3 [II-29]						30.2 µg/mL (≈ 88.1 µM)	26.7 µg/mL (≈ 77.9 µM)	21.6 µg/mL (≈ 63 µM)	19.4 µg/mL (≈ 56.6 µM)	6.8 µg/mL (≈ 19.8 µM)	> 62.5 µg/mL	7.5 µg/mL (≈ 21.9 µM)	9.9 µg/mL (≈ 28.9 µM)	0.7	7.3 µg/mL (≈ 21.3 µM)	42.6 µg/mL (≈ 124 µM)	0.7	3.8 µM	5.0	29.3 µg/mL (≈ 85.5 µM)	IC50 ([6]; read-out: L. amazonensis IC50): 0.8 µM; IC50 [19]: 5 µg/mL (≈ 14.6 µM)
COc1cccc(/C=N\Nc2ncnc3sc4c(c23)CCCC4)c1 [II-11]						6 µg/mL (≈ 17.7 µM)	6 µg/mL (≈ 17.7 µM)	5.5 µg/mL (≈ 16.3 µM)	2.5 µg/mL (≈ 7.39 µM)	5.3 µg/mL (≈ 15.7 µM)	48.4 µg/mL (≈ 143 µM)	5 µg/mL (≈ 14.8 µM)	6.2 µg/mL (≈ 18.3 µM)	0.9	5.7 µg/mL (≈ 16.8 µM)	40.4 µg/mL (≈ 119 µM)	0.6	5.5 µM	0.5	22.7 µg/mL (≈ 67.1 µM)	IC50 [15, 26]: 1.5 µg/mL (≈ 4.43 µM); IC50 ([6]; read-out: L. amazonensis IC50): 12.2 µM; IC50 [19]: 5 µg/mL (≈ 14.8 µM)
C=CCOc1cc(/C=C/C(=O)c2c(O)cc(O)cc2OC)cc(OCC=C)c1Br [Compound I-42, (2E)-3-(3,5-Bis(2-propenyloxy)-4-bromophenyl)-1-(2,4-dihydroxy-6-methoxyphenyl)-2-propen-1-one]	11.5 µM	1.1 µM	4.1 µM	14.4 µM																	Reduction of parasite burden (column After 7 weeks, analyzed after 6 weeks treatment) ([20]; 5 mg/kg/day intralesional, after 6 weeks treatment (footnote d)): 8^d %; Lesion diameter [20]: 4.6 mm; Reduction of parasite burden After 4 weeks [20]: 9%
COCOc1cc(OC)c(C(=O)/C=C/c2ccc(OC)cc2)c(OCOC)c1 [Compound I-44]	> 250 µM	1.3 µM	12.1 µM	5.15 µM	111 µM																Lesion diameter [20]: 4.7 mm; Reduction of parasite burden After 4 weeks [20]: 11%; Reduction of parasite burden After 7 weeks [20]: 17%
COCOc1cc(OC)c(C(=O)/C=C/c2ccc3c(c2)OCO3)c(OCOC)c1 [Compound I-45]	143 µM	11.7 µM	23.9 µM	17.2 µM	34.8 µM																cutaneous toxicity [20]: did not exhibit any cutaneous toxicity; Lesion diameter [20]: 4.6 mm; Reduction of parasite burden After 4 weeks [20]: 92%; Reduction of parasite burden After 7 weeks [20]: 35%
CCC(CC)=NNc1ncnc2sc3c(c12)CCCC3 [II-48]						1.4 µg/mL (≈ 4.85 µM)	4.3 µg/mL (≈ 14.9 µM)	4.4 µg/mL (≈ 15.3 µM)	11.2 µg/mL (≈ 38.8 µM)	3.3 µg/mL (≈ 11.4 µM)	5.9 µg/mL (≈ 20.5 µM)	4.4 µg/mL (≈ 15.3 µM)	7.4 µg/mL (≈ 25.7 µM)	1.0	6 µg/mL (≈ 20.8 µM)	46.2 µg/mL (≈ 160 µM)	0.7	46.7 µM	8.5	32.9 µg/mL (≈ 114 µM)	IC50 [15, 26]: 4.8 µg/mL (≈ 16.6 µM); Mean lesion size (mm) ([20]; after 4 weeks treatment): 2.8 mm; Mean parasite quantification (per 10^6) in lesion per mg (±SD) ([20]; after 4 weeks treatment): 0.60 (±0.44) amastigotes (×10^6)/mg; Mean lesion wt (mg) (±SD) ([20]; after 4 weeks treatment): 38.2 (±11.4) mg; % Variation of lesion wt ([20]; after 4 weeks treatment): 37%; % reduction of parasite burden in the lesion ([20]; after 4 weeks treatment): 65%; Mean lesion size (mm) ([20]; after 7 weeks treatment): 4.9 mm; Mean parasite quantification (per 10^6) in lesion per mg (±SD) ([20]; after 7 weeks treatment): 1.53 (±0.18) amastigotes (×10^6)/mg; Mean lesion wt (mg) (±SD) ([20]; after 7 weeks treatment): 85.0 (±4.5) mg; % Variation of lesion wt ([20]; after 7 weeks treatment): 5%; % reduction of parasite burden in the lesion ([20]; after 7 weeks treatment): 17%; IC50 ([6]; read-out: L. amazonensis IC50): 5.5 µM; IC50 [19]: 6 µg/mL (≈ 20.8 µM); IC50 ([4]; Leishmania braziliensis, Macrophage): 3.2 µg/mL; IC50 ([5]; Leishmania peruviana, Macrophage): 2 µg/mL
COCOc1cc(O)c(C(=O)/C=C/c2cc(OC)c(OC)c(OC)c2)c(OC)c1 [Compound I-46]	132 µM	6.2 µM	28.7 µM	13.1 µM	19.3 µM																cutaneous toxicity [20]: did not exhibit any cutaneous toxicity; Lesion diameter [20]: 5.1 mm; Reduction of parasite burden After 4 weeks [20]: 74%; Reduction of parasite burden After 7 weeks [20]: 41%

Reference: patent US9061984B2 (University of Louisville Research Foundation, Inc., priority 2008, dated 2015)
